{
  "source": "patent US12329738B2",
  "about": "“Urolithin A and a composition containing same for external use in inflammations of various etiologies” (WARSZAWSKI UNIWERSYTET MEDYCZNY, priority 2018, dated 2025)",
  "key": {"[1]": {"test_system": "NHDF fibroblasts (human normal skin fibroblasts)", "conditions": "comparative studies by the inventors", "description": "NHDF fibroblasts (human normal skin fibroblasts) were cultured in the DMEM medium supplemented with 10% FBS and a mixture of antibiotics—penicillin and streptomycin at 37° C., 5% CO2. […] After incubation with the compounds, the cells were washed twice with warm medium. The effect on cell viability was assessed using a standard MTT test."}, "[2]": {"test_system": "Wistar rats (DNCB-induced atopic dermatitis)", "assay": "Pruritus level (scratch reflexes) in DNCB-induced atopic dermatitis rat model", "format": "in vivo", "description": "Wistar rats aged 5-6 weeks (at the start of the experiment) kept under standard conditions with free access to feed and water were used for the tests. The animals were divided into 5 groups, 8 individuals in each group. To prepare 2,4-dinitrochlorobenzene (DNCB) composition inducing inflammation, DNCB was dissolved in 70% ethanol to a final concentration of 1.5% (w/v). Therapeutic composition was an ointment based on white petrolatum with 0.2% or 1.0% urolithin A added. The control ointment was white petrolatum without addition of urolithin A. The induction of chronic atopic dermatitis involved local 9-fold infiltration with 60 μl 1.5% 2,4-dinitrochlorobenzene (DNCB) on each (external and internal) surface of the right ear over 3 weeks (3 times a week). Negative control was the right ear of rats without induction inflammation. Treatment of atopic dermatitis with 0.2% or 1.0% urolithin composition and white petrolatum (control) or 1.0% hydrocortisone composition (positive control) was started eight days after sensitization—one day before the fourth application of DNCB. Ointments with appropriate for given group drug added were applied in a total volume of about 20 μl to each ear surface one day before and 6 hours after each DNCB application (for a period of 3 weeks). The negative control group consisted of rats without induced inflammation and treated with white petrolatum in a regimen analogous to the composition of urolithin A or hydrocortisone. Measurement of pruritus level (as measured by scratching reflexes) was evaluated as the total frequency of scratch reflexes during 10 minutes immediately after DNCB application on days 0, 4, 8, 12, 16, 20, 24, 28 and 32 of the experiment). Scratching was defined as a single or series of several reflexes of scratching with a paw directed at the site of DNCB application. The experimental results obtained were analyzed using the Statistica 7.1 program (StatSoft, Inc., Tulsa, OK, USA) and presented as mean values±SE. Statistical significance was set at P≤0.05. The results with established normal distribution in the D'Agostin and Pearson test were prepared using two- or three-factor analysis of variance (ANOVA). Parametric post-hoc analysis for individual time points was performed using the Bonferroni test."}, "ERK1/2": {"test_system": "ERK1/2", "assay": "ERK1/2 phosphorylation in THP-1 derived macrophages (Western blotting)", "format": "cell-based, human", "conditions": "40 μM; LPS 10 ng/mL, 35 min; FIG. 15", "description": "Monocytes of the THP-1 line were cultured in RPMI 1640 medium supplemented with 10% FBS and 2 mM glutamine. For transformation of monocytes into macrophages, the cells were treated with 12.5 ng/mL PMA (phorbol 12-myristate 13-acetate) for 48 hours, then washed and incubated for 24 hours in a culture medium without PMA. After this time, urolithin A, urolithin B, iso-urolithin A and the corresponding glucuronides (GUA, GUB and GiUA) were added to the cells at a concentration of 40 μM. After 1 hour of incubation with the compounds, the cells were stimulated with LPS from Escherichia coli (10 ng/mL). To assess the level of TNF-alpha production, the cells were incubated for 6 hours, to assess the expression of mRNA for TNF-alpha, the cells were incubated for 24 hours, to assess the effect on ERK1/2 phosphorylation, the cells were incubated for 35 minutes. […] The obtained results of experiments on in vitro models were analyzed using the Statistica 13 program (StatSoft, Inc., Tulsa, OK, USA) and presented as mean values±SEM. Statistical significance was set at P≤0.05. The results with established normal distribution in the D'Agostin and Pearson test were prepared using analysis of variance (ANOVA). Parametric post-hoc analysis was performed using Dunnett's test."}, "[3]": {"conditions": "animal model; oral and intravenous administration; cited from earlier work"}, "TNF-alpha": {"test_system": "TNF-alpha", "assay": "TNF-alpha production by THP-1 derived macrophages (ELISA)", "format": "cell-based, human", "conditions": "40 μM; LPS stimulation; FIG. 13", "description": "Monocytes of the THP-1 line were cultured in RPMI 1640 medium supplemented with 10% FBS and 2 mM glutamine. For transformation of monocytes into macrophages, the cells were treated with 12.5 ng/mL PMA (phorbol 12-myristate 13-acetate) for 48 hours, then washed and incubated for 24 hours in a culture medium without PMA. After this time, urolithin A, urolithin B, iso-urolithin A and the corresponding glucuronides (GUA, GUB and GiUA) were added to the cells at a concentration of 40 μM. After 1 hour of incubation with the compounds, the cells were stimulated with LPS from Escherichia coli (10 ng/mL).\nTo assess the level of TNF-alpha production, the cells were incubated for 6 hours, to assess the expression of mRNA for TNF-alpha, the cells were incubated for 24 hours, to assess the effect on ERK1/2 phosphorylation, the cells were incubated for 35 minutes.\nThe level of TNF-alpha in the culture medium was determined using the immunochemical ELISA method (BD biosciences). Evaluation of the expression of mRNA for TNF-alpha was performed using real time PCR. After 24 hours of incubation, RNA was isolated using NucleoSpin RNA Clean-up (Macherey-Nagel). The amount and quality of isolated RNA was determined using 2100 Bioanalyzer (Agilent Technologies). The expression level of mRNA for TNF-α was determined using Brilliant II SYBR Green QPCR Kit and Aria Mx Real-Time PCR thermocycler (Agilent Technologies). The following were used as primers for TNF-alpha: forward: 5′-[…]-3′, reverse: 5′-[…]-3′. Beta-actin (ACTB) was used as the housekeeping gene; primer forward: 5′-[…]-3′, reverse: 5′-[…]-3′).\nThe obtained results of experiments on in vitro models were analyzed using the Statistica 13 program (StatSoft, Inc., Tulsa, OK, USA) and presented as mean values±SEM. Statistical significance was set at P≤0.05. The results with established normal distribution in the D'Agostin and Pearson test were prepared using analysis of variance (ANOVA). Parametric post-hoc analysis was performed using Dunnett's test."}, "skin cells": {"test_system": "skin cells", "conditions": "in vitro; cited from earlier work"}, "hyaluronidase": {"test_system": "hyaluronidase", "assay": "Hyaluronidase activity, pharmacopoeial method (USP)", "format": "biochemical", "conditions": "experiments by the inventors", "text": "US application US2010323985A discloses the use of a compound from the group of urolithins, urolithin B, as a component of a pharmaceutical or cosmetic preparation for topical and/or parenteral use. […] Urolithin B has been indicated as an example of one of hyaluronic acid degradation inhibitors, alone or in a mixture. With respect to the above, the inventors conducted experiments according to the pharmacopoeial method (USP), observing as a result no effect of urolithin A on hyaluronidase activity. […] Also, in the case of psoriasis, research is currently underway on effectiveness of hyaluronidase subcutaneous injections ([…] preparation; https://clinicaltrials.gov/ct2/show/NCT01987609)."}},
  "data": [
    {"compound": "O=c1oc2cc(O)ccc2c2ccc(O)cc12", "note": "[urolithin A]", "values": [
      {"measurement": "Antiproliferative activity on human skin fibroblast cells", "setting": "[1]", "value": "neither urolithin A, nor 8-acetyl-urolithin A, nor 3-acetyl-urolithin A showed antiproliferative activity"},
      {"measurement": "Inhibition of scratching reflexes, comparison of urolithin doses with each other", "setting": "[2]; 0.2% vs 1%, p<0.05", "value": "more effective at a concentration of 1%"},
      {"measurement": "Reduction in scratching rate, urolithin vs. hydrocortisone", "setting": "[2]; overall effect, p<0.05", "value": "stronger"},
      {"measurement": "Scratching rate (frequency of scratch reflexes)", "setting": "[2]; topical ointment, urolithin A 0.2 and 1.0% (p<0.001), hydrocortisone 1% (p<0.01)", "value": "reduction in scratching rate"},
      {"measurement": "Inhibition of scratching reflexes compared to hydrocortisone 1%", "setting": "[2]; urolithin A 0.2% ointment, p=0.39", "value": "absence of significantly greater efficiency"},
      {"measurement": "Inhibition of scratching reflexes compared to hydrocortisone 1%", "setting": "[2]; urolithin A 1% ointment, p<0.05", "value": "significantly greater inhibition of scratching reflexes compared to hydrocortisone"},
      {"measurement": "ERK1/2 kinase phosphorylation in THP-1 derived macrophages", "setting": "ERK1/2", "value": "stimulation of ERK1/2 kinase phosphorylation"},
      {"measurement": "Toxicity", "setting": "[3]", "value": "no toxicity"},
      {"measurement": "TNF-alpha production by THP-1 derived macrophages", "setting": "TNF-alpha", "value": "inhibition of pro-inflammatory cytokine TNF-alpha production"},
      {"measurement": "Melanin production", "setting": "skin cells", "value": "reduced production of melanin"},
      {"measurement": "Effect on hyaluronidase activity", "setting": "hyaluronidase", "value": "no effect"}
    ]}
  ]
}
